Measurements: patent US7713994B2 (Wyeth LLC, priority 2005, dated 2010)
pIC50: −log10 of the molar value.

Tests used:
LoVo = assay: Cytotoxicity assay (SRB), LoVo; assay type: cell-based; conditions: Homo sapiens, LoVo, 72 h, LoVo cells, 3 days, SRB; read-out: In Vitro Cellular Activity IC50 LOVO
How it was run: (§1)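 BT474 (12000 cells/well) was treated for 6 days, whereas HCT-116 (4000), LoVo (6000) and MCF-7 (6000) were treated for 3 days, all in RPMI 1640 containing 5% FBS. Surviving-cell percentage came from SRB dye binding measured at 540 nm.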

MCF-7 = assay: Cytotoxicity assay (SRB), MCF-7; assay type: cell-based; conditions: Homo sapiens, MCF7, 72 h, MCF-7 cells, 3 days, SRB; read-out: In Vitro Cellular Activity IC50 MCF-7
How it was run: as §1

BT474 = assay: Cytotoxicity assay (SRB), BT474; assay type: cell-based; conditions: Homo sapiens, BT-474, 144 h, BT474 cells, 6 days, SRB; read-out: In Vitro Cellular Activity IC50 BT474
How it was run: as §1

cyclin D1/cdk 4 enzyme = biological target: T1, cyclin D1/cdk 4 enzyme (Homo sapiens, UniProt P11802); assay: CDK4 ELISA kinase assay (phospho-Rb ser 795 detection); assay type: biochemical; conditions: In Vitro Enzyme Assay, cyclin D1/cdk 4, read-out: CDK4 IC50
T1 construct: made in house; host or cells: Sf9 insect cells, recombinant baculovirus
How it was run: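 Partially purified Sf9-expressed cyclin D1/CDK4, cyclin E/CDK2 or cyclin B/CDK1 phosphorylated plate-bound GST-Rb C-terminal fragment with 200 μM ATP at 30° C for 1 h.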

HCT-116 = assay: Cytotoxicity assay (SRB), HCT-116; assay type: cell-based; conditions: Homo sapiens, HCT-116, 72 h, HCT116 cells, 3 days, SRB; read-out: In Vitro Cellular Activity IC50 HCT116
How it was run: as §1

T1 sequence (P11802 whole entry, species assumed): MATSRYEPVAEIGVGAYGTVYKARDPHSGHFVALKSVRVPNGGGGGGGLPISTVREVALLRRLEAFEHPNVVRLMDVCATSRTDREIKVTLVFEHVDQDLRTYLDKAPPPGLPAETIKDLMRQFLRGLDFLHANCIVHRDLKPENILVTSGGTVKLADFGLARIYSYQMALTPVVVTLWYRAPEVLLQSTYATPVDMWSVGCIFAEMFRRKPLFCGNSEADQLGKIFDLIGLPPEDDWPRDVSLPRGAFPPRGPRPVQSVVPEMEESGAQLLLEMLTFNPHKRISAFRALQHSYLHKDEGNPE
T1 sequence (P24385 whole entry partner, species assumed): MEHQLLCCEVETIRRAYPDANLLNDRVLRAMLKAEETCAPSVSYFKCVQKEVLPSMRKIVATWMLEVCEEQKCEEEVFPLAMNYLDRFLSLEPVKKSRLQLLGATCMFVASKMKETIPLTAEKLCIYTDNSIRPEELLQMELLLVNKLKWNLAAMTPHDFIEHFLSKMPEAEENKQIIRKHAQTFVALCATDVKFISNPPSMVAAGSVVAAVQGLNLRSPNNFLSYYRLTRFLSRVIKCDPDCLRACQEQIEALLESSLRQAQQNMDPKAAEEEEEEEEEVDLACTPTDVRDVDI

| pIC50 (cyclin D1/cdk 4 enzyme) | Structure (SMILES) | pIC50 (LoVo) | pIC50 (MCF-7) | pIC50 (BT474) | pIC50 (HCT-116) |
| --- | --- | --- | --- | --- | --- |
| 5.03 | Cc1cccc(-c2ccc3c(c2)C(=CNc2ccc(CC#N)cc2)C(=O)NC3=O)c1 [Example 716, {4-[(1,3-Dioxo-6-m-tolyl-2,3-dihydro-1H-isoquinolin-4-ylidenemethyl)-amino]-phenyl}-acetonitrile] | < 4.30 | 4.57 | < 4.30 | < 4.30 |
| 5.22 | COc1cccc(-c2ccc3c(c2)C(=CNCc2ccc(S(N)(=O)=O)cc2)C(=O)NC3=O)c1 [Example 737, 4-({[6-(3-Methoxy-phenyl)-1,3-dioxo-2,3-dihydro-1H-isoquinolin-4-ylidenemethyl]-amino}-methyl)-benzenesulfonamide] | 4.82 | 4.90 | < 4.30 | 4.75 |
| 5.60 | NS(=O)(=O)c1ccc(CNC=C2C(=O)NC(=O)c3ccc(-c4cccc(Cl)c4)cc32)cc1 [Example 750, 4-({[6-(3-Chloro-phenyl)-1,3-dioxo-2,3-dihydro-1H-isoquinolin-4-ylidenemethyl]-amino}-methyl)-benzenesulfonamide] | 4.56 | 4.41 | < 4.30 | 4.54 |
| 5.60 | NS(=O)(=O)c1ccc(CNC=C2C(=O)NC(=O)c3ccc(-c4ccccc4Cl)cc32)cc1 [Example 751, 4-({[6-(2-Chloro-phenyl)-1,3-dioxo-2,3-dihydro-1H-isoquinolin-4-ylidenemethyl]-amino}-methyl)-benzenesulfonamide] | 5.00 | 5.09 | 5.15 | 5.20 |
| 5.89 | Cc1ccc(-c2ccc3c(c2)C(=CNCc2ccc(S(N)(=O)=O)cc2)C(=O)NC3=O)cc1 [Example 752, 4-{[(1,3-Dioxo-6-p-tolyl-2,3-dihydro-1H-isoquinolin-4-ylidenemethyl)-amino]-methyl}-benzenesulfonamide] | 4.48 | 4.73 | 4.48 | 4.83 |
| 5.47 | Cc1cccc(-c2ccc3c(c2)C(=CNCc2ccc(S(N)(=O)=O)cc2)C(=O)NC3=O)c1 [Example 753, 4-{[(1,3-Dioxo-6-m-tolyl-2,3-dihydro-1H-isoquinolin-4-ylidenemethyl)-amino]-methyl}-benzenesulfonamide] | 4.63 | 4.88 | 4.54 | 4.84 |

Further lines, the molecule ahead of its results:

| Structure (SMILES) | pIC50 (cyclin D1/cdk 4 enzyme) | pIC50 (LoVo) | pIC50 (MCF-7) | pIC50 (BT474) | pIC50 (HCT-116) |
| --- | --- | --- | --- | --- | --- |
| Cc1ccc(-c2ccc3c(c2)C(=CNc2ccc(CC#N)cc2)C(=O)NC3=O)cc1 [Example 715, {4-[(1,3-Dioxo-6-p-tolyl-2,3-dihydro-1H-isoquinolin-4-ylidenemethyl)-amino]-phenyl}-acetonitrile] | 5.03 | 4.59 | 4.61 | 4.48 | 4.71 |
| CN1CCN(c2ccc(NC=C3C(=O)NC(=O)c4ccc(C=CCO)cc43)cc2)CC1 [Example 724, 6-(3-Hydroxy-propenyl)-4-{[4-(4-methyl-piperazin-1-yl)-phenylamino]-methylene}-4H-isoquinoline-1,3-dione] | 5.44 | 4.98 | 4.83 | 4.77 | 5.24 |
| CN1CCN(c2ccc(NC=C3C(=O)NC(=O)c4ccc(C=Cc5ccc(N)cc5)cc43)cc2)CC1 [Example 725, 6-[2-(4-Amino-phenyl)-vinyl]-4-{[4-(4-methyl-piperazin-1-yl)-phenylamino]-methylene}-4H-isoquinoline-1,3-dione] | 5.54 | 4.52 | 4.53 | 4.71 | 5.10 |
| CN1CCN(c2ccc(NC=C3C(=O)NC(=O)c4ccc(C=Cc5ccc(C(F)(F)F)cc5)cc43)cc2)CC1 [Example 729, 4-{[4-(4-Methyl-piperazin-1-yl)-phenylamino]-methylene}-6-[2-(4-trifluoromethyl-phenyl)-vinyl]-4H-isoquinoline-1,3-dione] | 4.96 | 4.75 | 5.68 | 5.33 | 5.85 |
| CN1CCN(c2ccc(NC=C3C(=O)NC(=O)c4ccc(C=CC(O)CO)cc43)cc2)CC1 (stereo not drawn) [Example 730, 6-(3,4-Dihydroxy-but-1-enyl)-4-{[4-(4-methyl-piperazin-1-yl)-phenylamino]-methylene}-4H-isoquinoline-1,3-dione] | 5.60 | 4.54 | 4.39 | 4.69 | 4.77 |
| N=C(N)c1ccc(NC=C2C(=O)NCc3cc(Cl)ccc32)cc1 [Example 857, 4-[(7-Chloro-3-oxo-2,3-dihydro-1H-isoquinolin-4-ylidenemethyl)-amino]-benzamidine] | 4.73 | < 4.30 | < 4.30 | 4.62 | 4.37 |
